Reference: publication PMC9606187, “Dual HDAC/BRD4 Inhibitors Relieves Neuropathic Pain by Attenuating Inflammatory Response in Microglia After Spared Nerve Injury” (Neurotherapeutics, 2022)

What was measured:
[1] = system: model of neuropathic pain; parameters: method as in PMID 33529752; conditions: cited from earlier work
[2] = biological target: T1, Recombinant Human Bromodomain containing protein 4, bromodomain 1 (BRD4-BD1) (Homo sapiens, UniProt O60885); experiment: AlphaScreen bromodomain binding assay (Reaction Biology), BRD4-1; conditions: ligand Histone H4 peptide (1–21) K5/8/12/16Ac-Biotin; in comparison with (+)-JQ1; read-out: IC50 on BRD4-BD1
T1 construct: bromodomain 1 (aa 44–170); purchased Reaction Biology (RBC) RD-11–140; host or cells: E. coli
Protocol: (§1) The reader assay is a binding assay using AlphaScreen technology […] assay and was performed by Reaction Biology (www.reactionbiology.com). The biotinylated peptide binding to the reader domain of His-tagged protein is monitored by the singlet oxygen transfer from the Streptavidin-coated donor beads to the AlphaScreen Ni-chelate acceptor beads.
(§2) Reaction buffer: 50 mM Hepes, pH7.5, 100 mM NaCl, 0.05% CHAPS, 0.1% BSA, and 1% DMSO (the final DMSO concentration may differ depending on compound stock and test concentrations).
(§3) Bromodomain: BRD4-1: RBC Cat# RD-11–140: Recombinant Human Bromodomain containing protein 4, bromodomain 1 (aa 44–170; Genbank Accession # NM_058243), expressed in E. coli with N-terminal His-tag. MW = 17.8 kDa; BRD4-2: RBC Cat# RD-11–141: Recombinant Human Bromodomain containing protein 4, bromodomain 2 (aa 349–460;Genbank Accession # NM_058243), expressed in E. coli with N-terminal His-tag. MW = 15.7 kDa. Ligand (C-term-Biotin): Histone H4 peptide (1–21) K5/8/12/16Ac-Biotin. Detection beads: PerkinElmer: Donor beads: Streptavidin-coated donor beads; Acceptor beads: AlphaScreen Ni acceptor beads.
Reaction procedure: • Deliver 2.5X BRD in wells of reaction plate except No BRD control wells. Add buffer instead. • Deliver compounds in 100% DMSO into the BRD mixture by Acoustic technology (Echo550; nanoliter range). […]

[3] = biological target: T2, Recombinant Human Bromodomain containing protein 4, bromodomain 2 (BRD4-BD2) (Homo sapiens, UniProt O60885); experiment: AlphaScreen bromodomain binding assay (Reaction Biology), BRD4-2
T2 construct: purchased Reaction Biology (RBC) RD-11–141; host or cells: E. coli
Protocol: as §1, §2, §3
Reaction procedure: • Deliver 2.5X BRD in wells of reaction plate except No BRD control wells. Add buffer instead. • Deliver compounds in 100% DMSO into the BRD mixture by Acoustic technology (Echo550; nanoliter range). Spin down and pre-incubation for 30 min. • Deliver 5X Ligand. Spin and shake. • Incubate for 30 min at room temperature with gentle shaking. • Deliver 5X donor beads. Spin and shake. • Deliver 5X acceptor beads. Spin and shake. Then gentle shaking in the dark for 60 min. • Alpha measurement (Ex/Em = 680/520–620 nm) in Enspire.

[4] = biological target: T3, HDAC1 (Homo sapiens, UniProt Q13547); experiment: HDAC1 immunoprecipitation & activity assay on treated HCT-116 cells; assay type: cell-based; conditions: HCT-116 cells treated at 10 µM for 12 h; in comparison with SAHA
T3 construct: endogenous in cells; host or cells: HCT-116
Protocol: HDAC assay: To test the inhibition activity of compounds, the HDAC1 immunoprecipitation (IP) & Activity Assay Kit (Catalog # K342-25; Biovision) was used under the protocol provided by the kit. HCT-116 cell lines were plated in 6 wells and treated with the investigated compounds at 10 µM for 12 h. After incubation, the media was removed, and the cells were washed with PBS (EuroClone) solution (2X). Then, 200 µl/well of lysis buffer with protease inhibitor was added and the cells were scraped and incubated in ice for 30 min. After centrifugation at 10,000 g for 10 min at 4 °C, the supernatant was collected. One hundred micrograms of each extract was incubated with 6 µl of Rabbit HDAC1 antibody and Rabbit IgG and the volume was reached to 500 µl with PBS with protease inhibitors. After incubation at 4 °C overnight a rotary mixer, 25 µl of the protein-A/G bead slurry, previously washed with PBS (2X), was added to the samples and incubated for 1 h at 4 °C. The beads were recovered after 3 washes with 1 ml PBS, by centrifuging at 14,000 g for ~ 10 s and used for HDAC assay.
HDAC assay preparation: For each reaction, 168 µl reaction mix containing HDAC assay buffer and HDAC substrate was prepared, added to the sample and to background control tube, and incubated at 37 °C for 2 h. SAHA was used as a positive control. […] The fluorescence was read at Ex/Em = 380/500 nm with Tecan M1000 plate reader.

[5] = system: naïve mice; experiment: Hot plate test, acute thermal pain in naïve mice; assay type: in vivo; conditions: 5 to 500 µM i.n.
From the text: Mice were randomly assigned to each treatment group. To evaluate the pharmacological profile of SUM35 (N-hydroxy-6-(1-methyl-6-phenyl-4H-benzo[f][1,2,4]triazolo[4,3-a][1,4]diazepin-8-yl)hex-5-ynamide), SUM52 ((S)-N-hydroxy-7-(2-(1-methyl-6-phenyl-4H-benzo[f][1,2,4]triazolo[4,3-a][1,4]diazepin-4-yl)acetamido)heptanamide) (Fig. 1F), synthesized in the laboratory of Prof. Maria Novella Romanelli, iBET762 (molibresib; (4S)-6-(4-Chlorophenyl)-N-ethyl-8-methoxy-1-methyl-4H-[1,2,4]triazolo[4,3,a][1,4] benzodiazepine-4-acetamide, and SAHA (vorinostat; suberoylanilide hydroxamic acid) (Sigma-Aldrich, Italy) were administered 15 min before the tests. Drugs were dissolved in 5% DMSO. Drug concentrations were prepared in such a way that the necessary dose could be administered in a volume of 10 µl per mouse by intranasal (i.n.) administration. The experimental protocol to test the effect of treatments on behavioral and in vitro tests included 3 control groups: untreated, vehicle (5% DMSO), and saline. A representative figure of the experimental protocol in naïve (C) and SNI (F) mice has been inserted in Supplementary Fig. 1.
For i.n. administration, mice were slightly anesthetized by 2% isoflurane inhalation and placed in a supine position. A 5 μl aliquot of solution (treatments or vehicle) was slowly dropped alternatively to each nostril with a micropipette tip.
Animals were habituated to the testing environment daily for at least 2 days before baseline testing. To evaluate onset and progression of pain hypersensitivity, neuropathic mice were monitored by measuring nociceptive responses every 30 min for 3 h before surgery or 3, 7, 10, and 14 days after nerve surgery. Experiments were performed on post-surgery day 7 and 14 when the pain hypersensitivity was well established. Each mouse served as its own control, the responses being measured both before and after surgery. All testing was performed with a blind procedure.

[6] = system: SNI mice; experiment: Hargreaves' plantar test, thermal allodynia in SNI mice; assay type: in vivo
Protocol: (§4) For i.n. administration, mice were slightly anesthetized by 2% isoflurane inhalation and placed in a supine position [30]. A 5 μl aliquot of solution (treatments or vehicle) was slowly dropped alternatively to each nostril with a micropipette tip.
Behavioral testing was performed before surgery to establish a baseline for comparison with post-surgical values.
Thermal nociceptive threshold was measured using Hargreaves’ device, as described [33]. Nociceptive response for thermal sensitivity was expressed as thermal paw withdrawal latency in seconds. All determinations were averaged for each animal.

[7] = system: SNI mice; experiment: Mechanical allodynia (Dynamic Plantar Aesthesiometer) in SNI mice; assay type: in vivo
Protocol: Mice were randomly assigned to each treatment group. […] Maria Novella Romanelli, iBET762 (molibresib; (4S)-6-(4-Chlorophenyl)-N-ethyl-8-methoxy-1-methyl-4H-[1,2,4]triazolo[4,3,a][1,4] benzodiazepine-4-acetamide, and SAHA (vorinostat; suberoylanilide hydroxamic acid) (Sigma-Aldrich, Italy) were administered 15 min before the tests. Drugs were dissolved in 5% DMSO. Drug concentrations were prepared in such a way that the necessary dose could be administered in a volume of 10 µl per mouse by intranasal (i.n.) administration. The experimental protocol to test the effect of treatments on behavioral and in vitro tests included 3 control groups: untreated, vehicle (5% DMSO), and saline.
as §4
Behavioral testing was performed before surgery to establish a baseline for comparison with post-surgical values. Mono-neuropathy was induced by spared nerve injury and this model of pain in mice has been in use for several years [31]. The SNI procedure was performed as previously described [31].
Mechanical allodynia was measured by using Dynamic Plantar Aesthesiometer (Ugo Basile, Bologna, Italy), as described [32]. Nociceptive response for mechanical sensitivity was expressed as mechanical paw withdrawal threshold (PWT) in grams. PWT was quantified by an observer blinded to the treatment.

[8] = time-course comparison, combination i-BET762 10 µg, SAHA 3 µg

T3 sequence (Q13547 whole entry): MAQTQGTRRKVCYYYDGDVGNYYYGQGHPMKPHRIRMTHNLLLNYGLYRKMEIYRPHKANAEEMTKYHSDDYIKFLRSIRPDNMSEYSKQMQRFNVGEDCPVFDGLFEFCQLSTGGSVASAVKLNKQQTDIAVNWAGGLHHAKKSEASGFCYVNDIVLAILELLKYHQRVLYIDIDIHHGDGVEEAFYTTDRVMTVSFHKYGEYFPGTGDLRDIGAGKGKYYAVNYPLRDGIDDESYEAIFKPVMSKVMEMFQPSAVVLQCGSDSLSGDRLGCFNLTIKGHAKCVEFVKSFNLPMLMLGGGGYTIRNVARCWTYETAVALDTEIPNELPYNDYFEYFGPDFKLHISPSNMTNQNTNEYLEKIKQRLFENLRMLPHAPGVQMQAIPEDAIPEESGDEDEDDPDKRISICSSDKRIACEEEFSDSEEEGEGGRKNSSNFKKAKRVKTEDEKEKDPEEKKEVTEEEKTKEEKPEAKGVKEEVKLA

Structure (SMILES): O=C(CCCCCCC(=O)Nc1ccccc1)NO [SAHA, suberoylanilide hydroxamic acid]
- time of peak of analgesic activity after administration [1]: 60 min

Structure (SMILES): Cc1nnc2n1-c1ccc(C#CCCCC(=O)NO)cc1C(c1ccccc1)=NC2 [SUM35, N-hydroxy-6-(1-methyl-6-phenyl-4H-benzo[f][1,2,4]triazolo[4,3-a][1,4]diazepin-8-yl)hex-5-ynamide]
- IC50 [2]: 1.72 µM
- preference between BRD4-BD1 and BRD4-BD2 domains ([3]; BRD4-BD1 vs BRD4-BD2): preferential interaction for BRD4-BD2
- IC50 ([3]; ligand Histone H4 peptide (1–21) K5/8/12/16Ac-Biotin, in comparison with (+)-JQ1, read-out: IC50 on BRD4-BD2): 0.118 µM
- inhibition of HDAC1 enzymatic activity [4]: Partial inhibition
- thermal antinociceptive effect (hot plate), whole dose range [5]: did not produce any significant increase of the thermal pain threshold
- thermal antiallodynic activity, ipsilateral side ([6]; 100 µM i.n.): reaching the statistical significance
- thermal antiallodynic activity, ipsilateral side ([6]; 200 µM i.n.): did not produce any significant increase of pain threshold
- thermal antiallodynic efficacy compared with SAHA + iBET762 combination [6, 8]: lower antiallodynic activity
- mechanical antiallodynic activity, ipsilateral side ([7]; 100 µM i.n.): reaching the statistical significance
- mechanical antiallodynic activity, ipsilateral side ([7]; 200 µM i.n.): did not produce any significant increase of pain threshold
- mechanical antiallodynic efficacy compared with SAHA + iBET762 combination [7, 8]: lower antiallodynic activity

Structure (SMILES): CCNC(=O)C[C@@H]1N=C(c2ccc(Cl)cc2)c2cc(OC)ccc2-n2c(C)nnc21 [iBET762, (4S)-6-(4-Chlorophenyl)-N-ethyl-8-methoxy-1-methyl-4H-[1,2,4]triazolo[4,3,a][1,4] benzodiazepine-4-acetamide]
- time of peak of analgesic activity after administration [1]: 90 min
